Consider 21 compounds from article PMC7558282, “The Anticancer Activity for the Bumetanide-Based Analogs via Targeting the Tumor-Associated Membrane-Bound Human Carbonic Anhydrase-IX Enzyme” (Pharmaceuticals, 2020).

The target of one experiment is cytosolic hCAs. Details: method as in PMID 18600270, PMID 18374572. Particulars: read-out: inhibition for cytosolic hCAs (weak); cited from earlier work.
Another experiment deals with mitochondrial hCAs. Details: method as in PMID 18600270, PMID 18374572. Particulars: read-out: inhibition for mitochondrial hCAs (moderate); cited from earlier work.
The target of experiment [1] is tumor-associated hCA isoforms. Details: method as in PMID 18600270, PMID 18374572. The settings on record: cited from earlier work.
Experiment [2] has as its target T1, hCA-IX (Homo sapiens, UniProt Q16790). Details: purchased BPS Bioscience 71101. Particulars: compared with compound 2; no reference given; cited from earlier work.
A further experiment concerns the target hCA-II (Homo sapiens, UniProt P00918). As to the kind of experiment: colorimetric CA-inhibition assay based on CA-esterase activity, hCA-II. The settings on record: hCA-II IC50, three replicate experiments; N/D = non-detected IC50 within the range of the tested concentrations.
Experiment [3] deals with T1, hCA-IX. As to the kind of experiment: colorimetric CA-inhibition assay based on CA-esterase activity, hCA-IX. Particulars: for IC50: hCA-IX IC50, three replicate experiments; for Selectivity Ratio II/IX: ratio of IC50 values for isozyme CA-II relative to CA-IX.
Procedure: (§2) Based on the kit manufacturer’s protocol, the candidate inhibitors were dissolved in DMSO at 10 × highest final test concentration and specific aliquots of such working dilutions were incubated with the target hCA isozyme for 10 min at room temperature prior to permit the formation of the enzyme-inhibitor complex. Triplicate experiments were performed for each candidate inhibitor concentration. Parallel wells of solvent and enzyme controls were prepared to test the solvent impact upon the activity of the target enzyme. […] Following incubation, the CA-substrate was added and changes in absorbance (at 405 nm) were monitored for 60 min at room temperature within the kinetic mode. The negative enzyme control wells (without added compounds) were arbitrarily set as 100% enzyme activity. […] Absorbance readings from background wells were subtracted from the compound assay wells in order to account for background hydrolysis activity caused by the buffer solution [44, 45].
Experiment [4] has as its system A-498 kidney carcinoma cells. As to the kind of experiment: MTT cell proliferation assay, A-498. The format is cell-based, human. The settings on record: ±SEM. Here is the method: (§1) Cells were cultured in 96-well plate, at cell density of 1.2–1.8 × 10^4 cells/well, using Dulbecco’s Modified Eagle Medium (Invitrogen^TM, Carlsbad, CA, USA) supplemented with 10% (w/v) fetal bovine serum (Hyclone^TM, Marlborough, MA, USA), 10 ug/mL of insulin (Sigma-Aldrich^TM, St. Louis, MO, USA), and 1% (w/v) penicillin-streptomycin (Sigma-Aldrich^TM, St. Louis, MO, USA). Following 24h-incubation period under 5% CO2 at 37 °C, cells were treated with compounds’ serial concentrations (0.1 µM–100 µM) in DMSO, where the DMSO final concentration in the culture medium never exceeded 0.2% (v/v). Subsequently, the treated microplates were incubated for 48 h at 5% CO2/37 °C prior to examination under the inverted microscope and proceeding for the MTT assay. The culture medium was discarded and 100 µL of complete medium comprising 5 mg/mL MTT dye were dispensed within every well, then plates were reincubated for 2 h at 5% CO2/37 °C. […] Color intensity within each well was measured spectrophotometrically using the ROBONIK-P2000® ELISA microplate reader (Bio-Tek^TM, Winooski, VT, USA) at 450 nm while subtracting the background absorbance of multi well plates at 690 nm. The experiment was conducted in triplicates and IC50 values were estimated through linear regression between the logarithm-transformed compound concentrations and corresponding % cell viability = (mean absorbance in test wells/mean absorbance in control wells) ∗ 100, having the response variable slope (four parameters) for all samples.
For orientation: Tetrazolium assays rely on reduction of a dye to a coloured formazan, in cell work by metabolically active cells.

Experiment [5] relates to SCaBER bladder squamous cell carcinoma cells. As to the kind of experiment: MTT cell proliferation assay, SCaBER. The format is cell-based. The settings on record: Homo sapiens, 48 h, ±SEM. On the procedure: as §1

The structures appear in SMILES notation. Where “and” joins values, the source holds several entries; their conditions need not be identical. Identical values can stand only once.

Procedure for hCA-II: as §2

Consider `CCCCNc1cc(C(=O)O)cc(S(N)(=O)=O)c1Oc1ccccc1` [Bumetanide, bumetanide], for which the Ki at cytosolic hCAs is 2570 to 6980 nM; at mitochondrial hCAs, 250 to 700 nM. Further, the “Ki on the tumor-associated hCA isoforms” value in experiment [1] was 21.1 to 25.8 nM. Moreover, on hCA-IX [2], the “hCA-IX inhibition of bumetanide” value is ~ 23 nM.
Usually IC50 stands for the concentration at which inhibition is half-maximal. `CCCCNc1cc(C(=O)OC)cc(S(N)(=O)=O)c1Oc1ccccc1` [Compound 2, bumetanide methyl ester]: the midpoint of inhibition against hCA-II, the IC50, lay at 668 nM. Also, on hCA-IX [3], the IC50 was determined as 23.7 nM and the “Selectivity Ratio II/IX” value stood at 28.1.
For the compound `CCCCNc1cc(C(=O)NN)cc(S(N)(=O)=O)c1Oc1ccccc1` [Compound 3, bumetanide hydrazide], the IC50 on hCA-II turned out to be 1610 nM. Also, at hCA-IX [3], inhibition was half-maximal at 7.87 nM (IC50) and the “Selectivity Ratio II/IX” value was 205.1.
Regarding `CCCCNc1cc(C(=O)N2N=CCC2=O)cc(S(N)(=O)=O)c1Oc1ccccc1` [Compound 4], at hCA-II, the IC50 was determined as 1050 nM. At hCA-IX [3], the half-maximal inhibitory concentration (IC50) was 16.4 nM and the “Selectivity Ratio II/IX” value is reported as 63.9.
As for `CCCCNc1cc(-c2n[nH]c(=S)o2)cc(S(N)(=O)=O)c1Oc1ccccc1` [Compound 5], the IC50 against hCA-II is 486 nM. Further, at hCA-IX [3], half-maximal inhibition (IC50) was put at 12.4 nM and the “Selectivity Ratio II/IX” value came to 39.0.
At hCA-IX [3], `CCCCNc1cc(C(=O)n2nc(C)cc2C)cc(S(N)(=O)=O)c1Oc1ccccc1` [Compound 6a] came in with an IC50 of 16.6 nM.
With `CCCCNc1cc(C(=O)n2nc(C)cc2-c2ccccc2)cc(S(N)(=O)=O)c1Oc1ccccc1` [Compound 6b], the results for the IC50 against hCA-II and at hCA-IX [3] were 858 nM and 5.43 nM, respectively. For the same compound, the “Selectivity Ratio II/IX” value at hCA-IX [3] was found to be 158.9.
As for `CCCCNc1cc(C(=O)NNC(=S)Nc2ccccc2)cc(S(N)(=O)=O)c1Oc1ccccc1` [Compound 7a], the IC50 against hCA-II was found to be 1570 nM. Besides, at hCA-IX [3], the IC50 was 17.7 nM and the “Selectivity Ratio II/IX” value is 88.6.
Turning to `C=CCNC(=S)NNC(=O)c1cc(NCCCC)c(Oc2ccccc2)c(S(N)(=O)=O)c1` [Compound 7b], it took 1340 nM to reach half-maximal inhibition against hCA-II (IC50). Also, at hCA-IX [3], the IC50 worked out at 14.4 nM and the “Selectivity Ratio II/IX” value was 93.4.
The corresponding values for `CCCCNc1cc(C(=O)NNC(=S)Nc2ccc(Br)cc2)cc(S(N)(=O)=O)c1Oc1ccccc1` [Compound 7c] are 1540 nM, 12.9 nM and 118.9.
Turning to `CCCCNc1cc(C(=O)N/N=c2\scc(-c3ccc(Cl)cc3)n2-c2ccccc2)cc(S(N)(=O)=O)c1Oc1ccccc1` [Compound 8a], the IC50 against hCA-II was determined as 251 nM; in experiment [4] (48 h) it was 15700 ± 630 nM; in experiment [4] (Homo sapiens, A498, 48 h), 15600 nM; against hCA-IX [3], 6.53 nM; in experiment [5], 28400 ± 1400 nM. In addition, at hCA-IX [3], the “Selectivity Ratio II/IX” value was found to be 38.6.
For the compound `CCCCNc1cc(C(=O)N/N=c2\scc(-c3ccc(C)cc3)n2-c2ccccc2)cc(S(N)(=O)=O)c1Oc1ccccc1` [Compound 8b], the IC50 against hCA-II amounted to 1320 nM; on hCA-IX [3], 13 nM. The “Selectivity Ratio II/IX” value at hCA-IX [3] is 101.6.
On hCA-II, `CCCCNc1cc(C(=O)N/N=c2\scc(-c3ccc(OC)cc3)n2-c2ccccc2)cc(S(N)(=O)=O)c1Oc1ccccc1` [Compound 8c] gave an IC50 of 474 nM. Also, on hCA-IX [3], the IC50 is 12.6 nM and the “Selectivity Ratio II/IX” value amounted to 37.5.
Consider `C=CCn1c(-c2ccc(Cl)cc2)cs/c1=N\NC(=O)c1cc(NCCCC)c(Oc2ccccc2)c(S(N)(=O)=O)c1` [Compound 8d], for which, at hCA-II, the IC50 worked out at 5120 nM. Further, at hCA-IX [3], it took 6.36 nM to reach half-maximal inhibition (IC50) and the “Selectivity Ratio II/IX” value was determined as 804.6.
At hCA-II, `C=CCn1c(-c2ccc(C)cc2)cs/c1=N\NC(=O)c1cc(NCCCC)c(Oc2ccccc2)c(S(N)(=O)=O)c1` [Compound 8e] yielded an IC50 of 518 nM. Besides, at hCA-IX [3], the IC50 was determined as 11.5 nM and the “Selectivity Ratio II/IX” value worked out at 44.9.
Take `C=CCn1c(-c2ccc(OC)cc2)cs/c1=N\NC(=O)c1cc(NCCCC)c(Oc2ccccc2)c(S(N)(=O)=O)c1` [Compound 8f]: the figures for the IC50 against hCA-II and against hCA-IX [3] were 999 nM and 13.4 nM, respectively. For the same compound, the “Selectivity Ratio II/IX” value at hCA-IX [3] stood at 74.5.
In the case of `CCCCNc1cc(C(=O)N/N=c2\scc(-c3ccc(Cl)cc3)n2-c2ccc(Br)cc2)cc(S(N)(=O)=O)c1Oc1ccccc1` [Compound 8g], at hCA-II, the IC50 was found to be 784 nM. Further, at hCA-IX [3], the IC50 is > 7 nM and 7.18 nM; the “Selectivity Ratio II/IX” value turned out to be 109.2.
Turning to `CCCCNc1cc(C(=O)N/N=c2\scc(-c3ccc(C)cc3)n2-c2ccc(Br)cc2)cc(S(N)(=O)=O)c1Oc1ccccc1` [Compound 8h], the IC50 against hCA-II is 205 nM and 209 nM; in experiment [4] (Homo sapiens, A498, 48 h) it was 6550 ± 260 nM; on hCA-IX [3] it was > 7 nM and 14.3 nM; in experiment [5], 78040 ± 290 nM. Further, on hCA-IX [3], the “Selectivity Ratio II/IX” value amounted to 14.5.
`CCCCNc1cc(C(=O)N/N=c2\scc(-c3ccc(OC)cc3)n2-c2ccc(Br)cc2)cc(S(N)(=O)=O)c1Oc1ccccc1` [Compound 8i] yielded an IC50 on hCA-II of 426 nM. Further, on hCA-IX [3], the IC50 was > 7 nM and 10.6 nM; the “Selectivity Ratio II/IX” value is 40.3.
On to `CCCCNc1cc(-c2n[nH]c(=S)n2-c2ccccc2)cc(S(N)(=O)=O)c1Oc1ccccc1` [Compound 9a], for which the IC50 at hCA-II turned out to be 4060 nM. For the same compound, on hCA-IX [3], the IC50 was 5.31 nM and the “Selectivity Ratio II/IX” value was determined as 764.8.
For the compound `C=CCn1c(-c2cc(NCCCC)c(Oc3ccccc3)c(S(N)(=O)=O)c2)n[nH]c1=S` [Compound 9b], the IC50 against hCA-II amounted to 205 nM; in experiment [4] (48 h), 16100 ± 1400 nM; in experiment [4] (Homo sapiens, A498, 48 h) it was 16000 nM; at hCA-IX [3] it was 7.25 nM; in experiment [5], 78100 ± 1700 nM. Further, the “Selectivity Ratio II/IX” value at hCA-IX [3] was 28.3.
